These results are taken from patent publication US20090196912A1, “Pyridinylamines” (GPC Botech AG, priority 2004, published 2009).

The structures appear in SMILES notation.

What all share (assay): Generic kinase assay (33P-ATP, Myelin Basic Protein)
Type in all cases: biochemical

One experiment addresses RICK (Homo sapiens, UniProt O43353). To be noted: class symbol: % inhibition at 10 μM or IC50. The procedure:
(§1) In order to determine the inhibitory effect of the compounds of the subject invention on various target enzymes a generic kinase assay was established.
(§2) Reactions were performed in 96-Well U-bottom microtiter plates (Greiner Bio-One; Frickenhausen/Germany, Cat. No. 650161), hereinafter designated “Assay Plates”. 10 μl of a solution comprising 40 μM Myelin Basic Protein (Invitrogen; Carlsbad, Calif./USA; Cat. No. 13228-010) and 4 μM ATP in three-fold concentrated Reaction Buffer (60 mM Tris-HCl, pH 7.5; 30 mM MgCl2; 3 mM dithiothreitol) were added into each well of the Assay Plate. 10 μl of serial dilutions of the compounds of the subject invention, dissolved in 4% DMSO, were then added into each well, except for Positive Control. Wells (C+ wells) and Negative Control Wells (C− wells). 10 μl of 4% DMSO without compounds were added to C+ and C− wells. 10 μl of a 500 mM solution of EDTA in water was then added to C− wells. Then 10 μl of a solution containing 50 μCi/ml Adenosine 5′-[γ-^33P]triphosphate in water was added to each well. To start the reaction 10 μl of the kinase to be assayed was added to each well. The optimal amount of kinase in the assay was determined to be the amount which yields to a turn-over of about 10% of ATP. Assay Plates were incubated for one hour at room temperature. Then 10 μl of a 500 mM solution of EDTA in water was added to each well except C− wells. Samples were now ready for measurement.
(§3) Measurements were preformed in 96-Well MAPH-Filter Plates (Millipore; Billerica, Mass./United States; Cat. No. MAPHNOB50), hereinafter designated “Measurement Plates”. Measurement Plates were washed with 200 μl of a 0.75% H3PO4 solution per well. The H3PO4 solution was exhausted using a Millipore vacuum station. 60 μl of a 0.75% H3PO4 solution was then added into each well, followed by the transfer of 30 μl of each well from the Assay Plate into the corresponding wells of the Measurement Plate. The Measurement Plate was incubated for 30 minutes at room temperature. Thereafter each well was washed three times with 200 μl of a 0.75% H3PO4 solution using a Millipore vacuum station. 20 μl of scintillation liquid (Supermix Liquid Szintillator; Perkin Elmer, Wellesley. Mass./United States; Cat. No. 1200-439) was then added to each well of the Measurement Plate. The plate was sealed and stored for 30 minutes in the darkness before radioactivity was quantified in a MicroBeta Scintillation Counter (Perkin Elmer, Wellesley. Mass./United States).

A further experiment has as its target cRaf (Homo sapiens, UniProt P04049). To be noted: 1 h; class symbol: % inhibition at 10 μM or IC50; read-out: Inhibitory effect on target cRaf. The protocol:
as §1, §2, §3

A further experiment has as its target Abl (Homo sapiens, UniProt P00519). To be noted: 1 h; class symbol: % inhibition at 10 μM or IC50; read-out: Inhibitory effect on target Abl. The protocol: as §1, §2, §3
In another experiment the target is p56Lck (Homo sapiens, UniProt P06239). To be noted: 1 h; class symbol: % inhibition at 10 μM or IC50; read-out: Inhibitory effect on target p56Lck. The procedure: as §1, §2, §3
Another experiment has as its target EGFR (Homo sapiens, UniProt P00533). To be noted: class symbol: % inhibition at 10 μM or IC50. The protocol:
as §1, §2, §3

The target of a further experiment is c-kit (Homo sapiens, UniProt P10721). To be noted: 1 h; class symbol: % inhibition at 10 μM or IC50; read-out: Inhibitory effect on target c-kit. The protocol:
as §1, §2, §3

A further experiment relates to PDGFR. To be noted: class symbol: % inhibition at 10 μM or IC50. The procedure: as §1, §2, §3
The next experiment deals with ROCK 2 (Homo sapiens, UniProt O75116). To be noted: 1 h; class symbol: % inhibition at 10 μM or IC50; read-out: Inhibitory effect on target ROCK 2. The procedure:
as §1, §2, §3

Another experiment deals with CDK5/p35 (Homo sapiens, UniProt Q00535). To be noted: class symbol: % inhibition at 10 μM or IC50. The procedure: as §1, §2, §3
Chain of CDK5/p35 (Q00535 whole entry, species assumed): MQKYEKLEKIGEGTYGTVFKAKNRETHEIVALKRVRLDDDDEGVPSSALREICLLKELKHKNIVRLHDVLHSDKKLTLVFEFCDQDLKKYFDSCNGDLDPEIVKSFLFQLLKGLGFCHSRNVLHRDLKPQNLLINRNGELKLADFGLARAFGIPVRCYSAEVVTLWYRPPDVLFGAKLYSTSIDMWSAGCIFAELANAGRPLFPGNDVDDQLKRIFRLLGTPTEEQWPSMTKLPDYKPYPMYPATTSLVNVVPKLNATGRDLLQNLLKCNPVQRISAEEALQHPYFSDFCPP
Chain of CDK5/p35 (Q15078 whole entry partner, species assumed): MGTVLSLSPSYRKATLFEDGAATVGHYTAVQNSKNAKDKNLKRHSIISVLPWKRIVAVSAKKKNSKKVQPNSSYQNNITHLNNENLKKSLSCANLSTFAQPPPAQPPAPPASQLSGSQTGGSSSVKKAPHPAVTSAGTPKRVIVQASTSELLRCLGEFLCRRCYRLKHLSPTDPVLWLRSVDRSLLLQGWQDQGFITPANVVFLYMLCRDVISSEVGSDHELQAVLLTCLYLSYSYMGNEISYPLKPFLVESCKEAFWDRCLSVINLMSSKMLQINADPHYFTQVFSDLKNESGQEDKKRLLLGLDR
The next experiment concerns the target CDK1/CyclinB (Homo sapiens, UniProt P06493). To be noted: class symbol: % inhibition at 10 μM or IC50. The protocol: as §1, §2, §3
In a further experiment the target is c-Src (Homo sapiens, UniProt P12931). To be noted: class symbol: % inhibition at 10 μM or IC50. The protocol: as §1, §2, §3
Chain of c-Src (P12931 whole entry, species assumed): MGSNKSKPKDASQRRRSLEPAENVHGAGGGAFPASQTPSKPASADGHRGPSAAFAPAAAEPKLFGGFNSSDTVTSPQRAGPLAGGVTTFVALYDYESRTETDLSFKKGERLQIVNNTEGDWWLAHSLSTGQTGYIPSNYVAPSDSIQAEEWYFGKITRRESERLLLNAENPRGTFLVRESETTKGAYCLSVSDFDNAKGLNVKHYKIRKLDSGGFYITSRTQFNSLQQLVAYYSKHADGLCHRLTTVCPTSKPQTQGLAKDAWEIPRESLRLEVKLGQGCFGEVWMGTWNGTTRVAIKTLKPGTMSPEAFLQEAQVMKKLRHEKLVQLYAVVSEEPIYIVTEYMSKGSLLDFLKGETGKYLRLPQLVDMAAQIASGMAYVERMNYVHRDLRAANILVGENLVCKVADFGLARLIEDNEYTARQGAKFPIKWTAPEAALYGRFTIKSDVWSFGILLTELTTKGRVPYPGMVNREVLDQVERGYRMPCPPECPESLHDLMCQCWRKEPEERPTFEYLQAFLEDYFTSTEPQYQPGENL
A further experiment has as its target CDK2/CyclinA (Homo sapiens, UniProt P24941). To be noted: class symbol: % inhibition at 10 μM or IC50. The procedure: as §1, §2, §3

Chain of Abl (P00519 whole entry, species assumed): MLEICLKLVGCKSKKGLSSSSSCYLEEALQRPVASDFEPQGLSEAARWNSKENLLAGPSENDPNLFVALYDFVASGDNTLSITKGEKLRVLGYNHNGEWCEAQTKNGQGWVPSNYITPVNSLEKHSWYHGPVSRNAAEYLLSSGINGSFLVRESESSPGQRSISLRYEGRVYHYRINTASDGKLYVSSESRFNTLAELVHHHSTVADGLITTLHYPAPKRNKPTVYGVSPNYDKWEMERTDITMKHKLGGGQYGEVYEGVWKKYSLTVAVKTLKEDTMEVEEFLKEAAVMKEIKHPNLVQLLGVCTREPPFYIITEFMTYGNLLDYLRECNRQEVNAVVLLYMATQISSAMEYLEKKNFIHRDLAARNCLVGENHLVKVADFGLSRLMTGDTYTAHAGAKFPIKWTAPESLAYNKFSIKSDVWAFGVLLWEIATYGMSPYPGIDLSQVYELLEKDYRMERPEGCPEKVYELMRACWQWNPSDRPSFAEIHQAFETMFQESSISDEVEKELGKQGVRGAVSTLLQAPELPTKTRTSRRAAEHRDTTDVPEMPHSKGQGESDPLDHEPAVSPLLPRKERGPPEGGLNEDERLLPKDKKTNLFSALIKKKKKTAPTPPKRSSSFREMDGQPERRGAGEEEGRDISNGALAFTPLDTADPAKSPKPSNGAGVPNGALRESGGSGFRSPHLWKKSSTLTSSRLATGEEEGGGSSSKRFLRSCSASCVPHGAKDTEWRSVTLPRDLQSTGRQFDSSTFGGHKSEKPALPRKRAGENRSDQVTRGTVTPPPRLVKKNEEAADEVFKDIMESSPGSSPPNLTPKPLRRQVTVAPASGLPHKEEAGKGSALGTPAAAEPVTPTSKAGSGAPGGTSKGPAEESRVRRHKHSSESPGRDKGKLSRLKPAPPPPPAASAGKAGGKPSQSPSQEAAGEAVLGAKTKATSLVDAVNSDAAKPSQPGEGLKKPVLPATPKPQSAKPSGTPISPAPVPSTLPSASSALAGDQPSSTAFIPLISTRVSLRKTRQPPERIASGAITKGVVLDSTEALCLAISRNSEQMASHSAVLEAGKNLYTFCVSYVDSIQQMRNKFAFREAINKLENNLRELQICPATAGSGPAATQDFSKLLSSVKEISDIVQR
Chain of CDK1/CyclinB (P06493 whole entry, species assumed): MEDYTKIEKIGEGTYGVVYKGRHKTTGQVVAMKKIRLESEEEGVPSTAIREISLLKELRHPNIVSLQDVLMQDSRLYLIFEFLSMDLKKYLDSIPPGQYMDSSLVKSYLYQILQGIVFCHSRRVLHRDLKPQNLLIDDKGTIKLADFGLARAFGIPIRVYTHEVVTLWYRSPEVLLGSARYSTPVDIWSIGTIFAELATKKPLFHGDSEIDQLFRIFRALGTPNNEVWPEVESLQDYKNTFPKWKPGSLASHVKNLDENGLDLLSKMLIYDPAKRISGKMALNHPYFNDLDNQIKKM
Chain of CDK1/CyclinB (P14635 whole entry partner, species assumed): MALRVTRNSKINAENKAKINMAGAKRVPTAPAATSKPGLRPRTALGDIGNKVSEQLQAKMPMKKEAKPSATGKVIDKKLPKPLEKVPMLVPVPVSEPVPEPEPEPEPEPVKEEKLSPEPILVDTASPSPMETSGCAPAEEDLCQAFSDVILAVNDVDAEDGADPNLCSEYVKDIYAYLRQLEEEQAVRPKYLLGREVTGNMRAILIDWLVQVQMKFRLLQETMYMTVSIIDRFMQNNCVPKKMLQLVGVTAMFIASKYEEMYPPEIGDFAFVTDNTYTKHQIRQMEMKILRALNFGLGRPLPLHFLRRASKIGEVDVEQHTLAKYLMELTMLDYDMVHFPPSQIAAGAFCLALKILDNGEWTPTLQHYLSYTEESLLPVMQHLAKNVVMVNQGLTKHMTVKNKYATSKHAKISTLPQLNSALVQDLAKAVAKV
Chain of EGFR (P00533 25-1210, species assumed): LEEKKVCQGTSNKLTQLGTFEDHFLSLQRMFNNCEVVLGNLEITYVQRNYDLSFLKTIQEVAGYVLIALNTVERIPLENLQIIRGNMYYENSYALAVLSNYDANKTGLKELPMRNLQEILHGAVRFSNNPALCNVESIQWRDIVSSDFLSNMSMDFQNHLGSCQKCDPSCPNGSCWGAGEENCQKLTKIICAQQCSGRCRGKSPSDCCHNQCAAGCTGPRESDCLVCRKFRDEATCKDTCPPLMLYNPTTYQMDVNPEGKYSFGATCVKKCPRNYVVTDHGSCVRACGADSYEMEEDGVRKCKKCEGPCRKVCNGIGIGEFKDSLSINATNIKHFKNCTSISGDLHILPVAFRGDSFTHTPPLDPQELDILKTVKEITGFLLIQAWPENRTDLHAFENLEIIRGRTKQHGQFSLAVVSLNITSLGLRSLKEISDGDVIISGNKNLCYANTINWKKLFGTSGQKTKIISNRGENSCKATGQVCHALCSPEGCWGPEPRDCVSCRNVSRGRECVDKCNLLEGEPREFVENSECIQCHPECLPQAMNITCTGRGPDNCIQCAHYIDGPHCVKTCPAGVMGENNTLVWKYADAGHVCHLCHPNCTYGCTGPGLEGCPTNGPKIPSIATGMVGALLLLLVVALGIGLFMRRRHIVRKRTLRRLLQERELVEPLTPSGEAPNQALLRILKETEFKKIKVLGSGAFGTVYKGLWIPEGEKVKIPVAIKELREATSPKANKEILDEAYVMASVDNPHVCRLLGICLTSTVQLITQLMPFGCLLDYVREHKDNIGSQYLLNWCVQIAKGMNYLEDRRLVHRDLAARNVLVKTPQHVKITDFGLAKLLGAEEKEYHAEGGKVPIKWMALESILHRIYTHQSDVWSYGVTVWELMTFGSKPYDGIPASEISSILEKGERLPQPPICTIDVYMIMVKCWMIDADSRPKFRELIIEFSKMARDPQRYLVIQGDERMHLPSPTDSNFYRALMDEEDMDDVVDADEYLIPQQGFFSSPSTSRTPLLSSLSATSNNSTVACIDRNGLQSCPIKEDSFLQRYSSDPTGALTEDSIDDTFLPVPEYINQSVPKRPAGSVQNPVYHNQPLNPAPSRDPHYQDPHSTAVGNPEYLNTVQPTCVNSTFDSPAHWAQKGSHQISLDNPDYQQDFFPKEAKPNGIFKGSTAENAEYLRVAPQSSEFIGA
Chain of RICK (O43353 whole entry, species assumed): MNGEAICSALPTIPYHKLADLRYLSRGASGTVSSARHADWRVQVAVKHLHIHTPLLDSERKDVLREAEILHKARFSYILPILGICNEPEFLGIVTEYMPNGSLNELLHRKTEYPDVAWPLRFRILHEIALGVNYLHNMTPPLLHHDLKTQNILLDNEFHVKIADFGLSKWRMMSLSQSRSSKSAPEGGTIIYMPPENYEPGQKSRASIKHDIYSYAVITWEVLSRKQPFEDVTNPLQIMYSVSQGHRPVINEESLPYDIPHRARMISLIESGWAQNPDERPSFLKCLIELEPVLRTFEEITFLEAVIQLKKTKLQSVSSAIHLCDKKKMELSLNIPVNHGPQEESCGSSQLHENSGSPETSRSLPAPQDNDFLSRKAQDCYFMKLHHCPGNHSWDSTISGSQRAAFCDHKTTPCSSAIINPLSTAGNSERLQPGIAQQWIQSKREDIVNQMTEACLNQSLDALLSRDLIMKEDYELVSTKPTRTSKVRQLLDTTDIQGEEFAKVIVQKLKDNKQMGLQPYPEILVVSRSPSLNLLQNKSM

As for `Oc1cccc(CNc2cncc(-c3cccc(O)c3)c2)c1` [Compound 225, 3-{5-[(3-Hydroxybenzyl)amino]pyridin-3-yl}phenol], the “Inhibitory effect on target RICK” value on RICK is on record as “C (C: IC50 measured: <1 μM)”. Moreover, the inhibition at 10 µM was 50 to 90% at cRaf; 50 to 90% at Abl; above 90% on p56Lck; above 90% at c-kit; 50 to 90% on ROCK 2. For the same compound, the “Inhibitory effect on target EGFR” value on EGFR is given as “A (A: 50-90% inhibition at 10 μM enzyme concentration)”. In addition, the “Inhibitory effect on target PDGFR” value with PDGFR is on record as “A (A: 50-90% inhibition at 10 μM enzyme concentration)”.

Consider `OCc1ccc(-c2cncc(NCc3cccc(O)c3)c2)cc1` [Compound 229, 3-{[5-(4-Hydroxymethyl-phenyl)-pyridin-3-ylamino]-methyl}-phenol], for which the “Inhibitory effect on target RICK” value at RICK is “C (C: IC50 measured: <1 μM)”. The inhibition at 10 µM at cRaf was 50 to 90%; on Abl, 50 to 90%; on p56Lck it was 50 to 90%; at c-kit, above 90%; at ROCK 2, 50 to 90%. For the same compound, the “Inhibitory effect on target EGFR” value on EGFR is recorded as “A (A: 50-90% inhibition at 10 μM enzyme concentration)”. In the experiment on PDGFR, the “Inhibitory effect on target PDGFR” value is listed as “A (A: 50-90% inhibition at 10 μM enzyme concentration)”.

For `Oc1cccc(CNc2cncc(-c3cccc(O)c3F)c2)c1` [Compound 231, 2-Fluoro-3-[5-(3-hydroxy-benzylamino)-pyridin-3-yl]-phenol], the “Inhibitory effect on target RICK” value at RICK is given as “C (C: IC50 measured: <1 μM)”. For the same compound, the “Inhibitory effect on target CDK5/p35” value on CDK5/p35 is reported as “A (A: 50-90% inhibition at 10 μM enzyme concentration)”. The inhibition at 10 µM at cRaf, at Abl, on p56Lck and on c-kit was 50 to 90% each time. Besides, at CDK1/CyclinB, the “Inhibitory effect on target CDK1/CyclinB” value is reported as “A (A: 50-90% inhibition at 10 μM enzyme concentration)”. In addition, the “Inhibitory effect on target c-Src” value at c-Src was “B (B: >90% inhibition at 10 μM enzyme concentration)”. The “Inhibitory effect on target EGFR” value at EGFR is recorded as “A (A: 50-90% inhibition at 10 μM enzyme concentration)”. The “Inhibitory effect on target PDGFR” value in the experiment on PDGFR is reported as “A (A: 50-90% inhibition at 10 μM enzyme concentration)”.

Consider `CC(=O)Nc1cccc(-c2cncc(Nc3ccc(F)cc3)c2)c1` [Compound 235, N-{3-[5-(4-Fluoro-phenylamino)-pyridin-3-yl]-phenyl}-acetamide], for which the “Inhibitory effect on target RICK” value on RICK was “C (C: IC50 measured: <1 μM)”. At CDK1/CyclinB, the “Inhibitory effect on target CDK1/CyclinB” value is on record as “A (A: 50-90% inhibition at 10 μM enzyme concentration)”. Besides, the “Inhibitory effect on target EGFR” value on EGFR is recorded as “A (A: 50-90% inhibition at 10 μM enzyme concentration)”. The “Inhibitory effect on target PDGFR” value in the experiment with PDGFR is listed as “A (A: 50-90% inhibition at 10 μM enzyme concentration)”.

For the compound `COc1cccc(-c2cncc(NCc3cccc(O)c3)c2)c1F` [Compound 236, 3-{[5-(2-Fluoro-3-methoxy-phenyl)-pyridin-3-ylamino]-methyl}-phenol], the “Inhibitory effect on target RICK” value at RICK is given as “C (C: IC50 measured: <1 μM)”. In addition, the inhibition at 10 µM on cRaf is 50 to 90%; on Abl, 50 to 90%; on p56Lck, 50 to 90%; at c-kit it was above 90%. Moreover, on CDK1/CyclinB, the “Inhibitory effect on target CDK1/CyclinB” value is given as “A (A: 50-90% inhibition at 10 μM enzyme concentration)”. For the same compound, the “Inhibitory effect on target c-Src” value on c-Src is recorded as “A (A: 50-90% inhibition at 10 μM enzyme concentration)”. The “Inhibitory effect on target EGFR” value at EGFR is “A (A: 50-90% inhibition at 10 μM enzyme concentration)”. In addition, in the experiment on PDGFR, the “Inhibitory effect on target PDGFR” value is listed as “A (A: 50-90% inhibition at 10 μM enzyme concentration)”.

Turning to `COc1cccc(-c2cncc(NCc3cccc(O)c3)c2)c1` [Compound 239, 3-{[5-(3-Methoxy-phenyl)-pyridin-3-ylamino]-methyl}-phenol], the “Inhibitory effect on target RICK” value at RICK is reported as “C (C: IC50 measured: <1 μM)”. For the same compound, on CDK5/p35, the “Inhibitory effect on target CDK5/p35” value is “A (A: 50-90% inhibition at 10 μM enzyme concentration)”. Further, the “Inhibitory effect on target CDK2/CyclinA” value on CDK2/CyclinA is listed as “C (C: IC50 measured: <1 μM)”. Moreover, the inhibition at 10 µM at cRaf, at Abl, at p56Lck and at ROCK 2 was 50 to 90% throughout. Further, the “Inhibitory effect on target CDK1/CyclinB” value at CDK1/CyclinB is “B (B: >90% inhibition at 10 μM enzyme concentration)”. At c-Src, the “Inhibitory effect on target c-Src” value is reported as “B (B: >90% inhibition at 10 μM enzyme concentration)”. Besides, the “Inhibitory effect on target EGFR” value on EGFR is “A (A: 50-90% inhibition at 10 μM enzyme concentration)”. Also, the “Inhibitory effect on target PDGFR” value in the experiment on PDGFR is listed as “B (B: >90% inhibition at 10 μM enzyme concentration)”.

`COc1ccccc1Nc1cncc(-c2cccc(NC(C)=O)c2)c1` [Compound 240, N-{3-[5-(2-Methoxy-phenylamino)-pyridin-3-yl]-phenyl}-acetamide]: the “Inhibitory effect on target RICK” value on RICK was “C (C: IC50 measured: <1 μM)”. Besides, at CDK1/CyclinB, the “Inhibitory effect on target CDK1/CyclinB” value is listed as “A (A: 50-90% inhibition at 10 μM enzyme concentration)”. For the same compound, the inhibition at 10 µM on p56Lck was in the range of 50 to 90%. Besides, the “Inhibitory effect on target PDGFR” value in the experiment with PDGFR is on record as “A (A: 50-90% inhibition at 10 μM enzyme concentration)”.

On to `COC(=O)c1cccc(-c2cncc(NCc3cccc(O)c3)c2)c1` [Compound 243, 3-[5-(3-Hydroxy-benzylamino)-pyridin-3-yl]-benzoic acid methyl ester], for which, at RICK, the “Inhibitory effect on target RICK” value is “C (C: IC50 measured: <1 μM)”. Further, at CDK2/CyclinA, the “Inhibitory effect on target CDK2/CyclinA” value is “B (B: >90% inhibition at 10 μM enzyme concentration)”. For the same compound, the inhibition at 10 µM was 50 to 90% on cRaf; 50 to 90% at Abl; above 90% at p56Lck; 50 to 90% on c-kit; 50 to 90% at ROCK 2.

Regarding `Oc1cccc(CNc2cncc(Cc3cccc(O)c3)c2)c1` [Compound 272, (3-hydroxy-benzyl)-[5-(3-hydroxy-benzyl)-pyridin-3-yl]-amine], on CDK5/p35, the “Inhibitory effect on target CDK5/p35” value is “A (A: 50-90% inhibition at 10 μM enzyme concentration)”. Besides, the “Inhibitory effect on target CDK2/CyclinA” value on CDK2/CyclinA was “B (B: >90% inhibition at 10 μM enzyme concentration)”. Also, the inhibition at 10 µM on ROCK 2 is 50 to 90%.
